Measurements reported in US20110059102A1, “Therapeutic Method Targeting Midkine” (NATIONAL UNIVERSITY CORPORATION NAGOYA UNIVERSITY, priority 2009, published 2011).
Entries after “also recorded” stand apart in the source; their conditions may differ. Structures can show the parent of a compound that is named as a salt.

Legend:
ACE = ACE expression in HMVEC-L by Western blotting; assay type: cell-based, human
From the text: Histology and immunohistochemistry. The removed kidneys and lungs were fixed in 10% buffered formalin, embedded in paraffin, and then cut into 4-10.1 μm sections. The sections were stained with H&E, PAS, and Masson's trichrome. Another tissue sample was embedded in OCT compound (Sakura Finetek) and frozen in liquid nitrogen for immunostaining. Sections were cut to a thickness of 3 μm with a cryostat and fixed in acetone. High-power fields were used to examine the sections for evidence of focal sclerosis (J. Hypertens. 13:1785-1790, J. Lab. Clin. Med. 115:165-173). Glomerular sclerosis was assessed by semiquantitative score (grades 0 to +4) using the method of Raij et al. (Kidney Int. 26:137-143): grade 0, no sclerosis of glomeruli; grade 1, sclerosis of up to 25% of glomerulus; grade 2, sclerosis of 25%-50% of glomerulus; grade 3, sclerosis of 50%-75% of glomerulus; grade 4, sclerosis of 75%-100% of glomerulus. At least 50 glomeruli were evaluated under ×400 magnification and results averaged for each kidney (Mdk^+/+: 2 weeks, n=5; 4 weeks, n=4; 8 weeks, n=4; Mdk^−/−: 2 weeks, n=4; 4 weeks, n=3; 8 weeks, n=3). Immunostaining for ACE and MK was performed on buffered formalin-fixed tissues. Sections were deparaffinized, rehydrated, incubated in 3% hydrogen peroxide in methanol to block endogenous peroxidase, and washed in 10% normal goat serum (Dako) in PBS to block nonspecific binding. Subsequently, sections were incubated with mouse anti-ACE monoclonal antibody (dilution, 1:400; Chemicon International, Millipore) or anti-MK monoclonal antibody (dilution, 1:100) overnight at 4° C. as described previously (22), followed by a conjugate of polyclonal goat anti-mouse IgG antibody and HRP-labeled polymer (Histofine Simple Stain; Nichirei) for 1 hour at room temperature as a secondary antibody. The staining was visualized with 3-3′ diaminobenzidine (Nichirei) to produce a brown color. The sections were covered with 90% glycerol containing p-phenylenediamine and were examined by electron microscopy (H-7100; Hitachi). For double immunofluorescence staining of MK and thrombomodulin as a marker of the vascular endothelium, the cryosections of lungs were first incubated with chicken anti-human MK (dilution, 1:200) and then with rabbit anti-rat thrombomodulin (dilution, 1:1,000) (J. Immunol. 150:5633-5646), followed by incubation with FITC-labeled rabbit anti-chicken IgG (dilution, 1:160) and rhodamine-labeled goat anti-rabbit IgG (dilution, 1:320) as secondary antibodies. […] The lung and kidney section from each mouse was viewed under ×400 magnification, and then macrophages or neutrophils were counted from 10 fields and averaged. […]

[1] = Body weight, blood urea nitrogen and serum creatinine after 5/6 nephrectomy, drug treatment model; assay type: in vivo; conditions: Mdk+/+ mice; for BUN (blood urea nitrogen) / Cre (serum creatinine): 2 weeks after nephrectomy, oral daily at indicated dose, mean ± SD; for Abnormal elevation of blood urea nitrogen and serum creatinine: 2 weeks after 5/6 nephrectomy
Experimental: Animals and experimental design. Mice deficient in Mdk were generated as described previously (Genes Cells. 3:811-822). After backcrossing of Mdk+/− mice for 14 generations with 129/Sv mice, Mdk+/− mice were mated with each other to generate Mdk^+/+ and Mdk^−/− mice, which were used in this study. Experiments were performed on 8 to 12-week-old female mice weighing 20-25 g that were housed under controlled environmental conditions and maintained with standard food and water. Animal care and experimental procedures were approved by the Animal Experimentation Committee of the Nagoya University Graduate School of Medicine and were conducted according to the Nagoya University Regulations for Experiments. Renal ablation was performed as described previously. Briefly, mice were anesthetized by diethyl ether. The flank region was shaved, and the animals were placed on a heating pad to maintain a constant body temperature (37° C.). Under anesthesia, right flank incisions were made, and the right kidney was removed. Seven days later, mice were anesthetized as above, and two-thirds of the mass of the left kidneys was ablated (Mdk^+/+: 2 weeks, n=13; 4 weeks, n=13; 8 weeks, n=8; Mdk^−/−: 2 weeks, n=10; 4 weeks, n=10; 8 weeks, n=4). After the renal ablation, the flanks were closed in 2 layers with 5-0 silk sutures. The animals received 100 ml/kg warm saline instilled into the peritoneal cavity during the procedure and were allowed to recover with free access to food and water. In the control mice, a sham operation was performed (Mdk^+/+, n=11; Mdk^−/−, n=8).
(§1) Drug treatment model. In the drug treatment studies, Mdk^+/+ mice were randomly assigned to receive one of the following 5 treatments after 5/6 nephrectomy and were orally treated daily starting from 24 hours after 5/6 nephrectomy: vasodilator (hydralazine hydrochloride; Novartis) at a dose of 10 mg/kg/d (group 1, n=3); ACE inhibitor (temocapril; Daiichi Sankyo Co.) at a dose of 3 mg/kg/d (group 2, n=3); angiotensin receptor blocker (olmesartan; Daiichi Sankyo Co.) at a dose of 3 mg/kg/d (group 3, n=3); antioxidative reagent (tempol; Alexis Biochemicals) at a dose of 3 mmol/l in drinking solution after 5/6 nephrectomy (group 4, n=6); and sham operation (group 5, n=6). Drug treatment was performed […]. In the present study, we determined the dosage according to previous reports (Hypertension. 13:582-588, J. Cardiovasc. Pharmacol. 40:533-542, Hypertension. 43:841-848). Blood pressure was measured by the tail-cuff method at 2 weeks, as described below under Blood pressure monitoring. Mice were sacrificed at 2 weeks after 5/6 nephrectomy, and blood and tissue samples were collected.
Sample collection. Mice were sacrificed at 2, 4, and 8 weeks after 5/6 nephrectomy. The remnant kidney, lung, brain, heart, and liver were removed rapidly, snap-frozen in liquid nitrogen, and stored at −80° C. until examinations were performed. Each tissue was processed for histology, protein extraction, and RNA extraction. Blood samples were collected into chilled tubes for measurement of renal function parameters and into chilled tubes containing EDTA for Ang II measurements. Serum and plasma were separated by centrifugation (500 g for 10 minutes) and stored at −80° C. until measurement were performed. Serum creatinine, blood urea nitrogen (Mdk^+/+: sham, n=6; 2 weeks, n=10; 4 weeks, n=9; 8 weeks, n=8; Mdk^−/−: sham, n=7; 2 weeks, n=7; 4 weeks, n=6; 8 weeks, n=4), and Ang II concentrations (Mdk^+/+: sham, n=6; 2 weeks, n=6; 4 weeks, n=8; Mdk^−/−: sham, n=6; 2 weeks, n=7; 4 weeks, n=5) were measured by Mitsubishi BCL.

[2] = system: Mdk+/+ mice after 5/6 nephrectomy; assay: Blood pressure by tail-cuff method, drug treatment model after 5/6 nephrectomy; assay type: in vivo; conditions: 2 weeks after 5/6 nephrectomy
Experimental: as §1
(§2) Blood pressure monitoring. Blood pressure was measured in restrained, conscious mice by the indirect tail-cuff technique under unstressed conditions (BP-98A; Softron) at 0, 2, 4, 6, and 8 weeks after 5/6 nephrectomy (J. Lab. Clin. Med. 78:957-962). Before measurement, the mice were warmed with a heating pad for 5 minutes. A total of 7-10 readings were taken for each mouse, at 1- to 2-minute intervals.

[3] = system: Mdk+/+ mice after 5/6 nephrectomy; assay: Kidney histology (PAS staining) after 5/6 nephrectomy, drug treatment model; assay type: in vivo; conditions: 2 weeks after 5/6 nephrectomy; for Renal tubulointerstitial damage: PAS staining
Experimental: as §1
Histology and immunohistochemistry.

MK = MK protein expression in lung and kidney by Western blotting after 5/6 nephrectomy; assay type: in vivo; conditions: Mdk+/+ mice after 5/6 nephrectomy
Experimental: as §1
Western blot analysis. Mouse kidney, lung, brain, heart, and liver tissues were snap-frozen in liquid nitrogen for protein isolation. […] The density of each band was measured using the public domain NIH Image program (http://rsb.info.nih.gov/nih-image/).

Ang II = assay: Plasma Ang II concentration after 5/6 nephrectomy; assay type: in vivo; conditions: Mdk+/+ mice after 5/6 nephrectomy
Experimental: as §1, with “Mice were sacrificed at 2 weeks after 5/6 nephrectomy, and blood and tissue samples were collected.” left out
Sample collection. […] Serum creatinine, blood urea nitrogen (Mdk^+/+: sham, n=6; 2 weeks, n=10; 4 weeks, n=9; 8 weeks, n=8; Mdk^−/−: sham, n=7; 2 weeks, n=7; 4 weeks, n=6; 8 weeks, n=4), and Ang II concentrations (Mdk^+/+: sham, n=6; 2 weeks, n=6; 4 weeks, n=8; Mdk^−/−: sham, n=6; 2 weeks, n=7; 4 weeks, n=5) were measured by Mitsubishi BCL.

HMVEC-L = assay: Ang II concentration in HMVEC-L (conversion from Ang I to Ang II); assay type: cell-based, human; conditions: HMVEC-L treated 36 hours with MK 100 ng/ml plus heparin 20 μg/ml or heparin alone, then Ang I added
Experimental: Ang II concentration in HMVEC-L. After reaching confluence, HMVEC-L were washed with PBS and cultured for 24 hours in essential basal medium containing 0.5% FBS. These cells were exposed to 100 ng/ml rh-MK plus 20 μg/ml heparin or 20 μg/ml heparin alone in essential basal medium containing 0.5% FBS for 36 hours. After stimulation, HMVEC-L were washed with PBS and exposed to 500 pM Ang I (Sigma-Aldrich) for 10 and 25 minutes. Supernatants were collected into chilled tubes, and then the Ang II concentration was measured as previously described (Hypertension. 39:129-134).

[4] = system: Mdk-/- mice after 5/6 nephrectomy; assay: rh-MK and -PTN treatment model (osmotic pump), blood pressure by tail-cuff; assay type: in vivo; conditions: 1.6 mg/ml, 100 μl by osmotic pump over 14 days
Experimental: rh-MK and -PTN treatment model. In the pump study, MK protein in saline (1.6 mg/ml) (n=5), PTN in saline (1.6 mg/ml; n=5), or saline alone (n=5) was infused using an osmotic pump (ALZA Corp.) into Mdk^−/− mice after 5/6 nephrectomy. The pumps continuously infused a total of 100 μl over 14 days. The pumps were implanted under the dorsal skin the next day after 5/6 nephrectomy. Blood pressure was measured by the indirect tail-cuff technique at 0 and 2 weeks after 5/6 nephrectomy. Mice were sacrificed at 2 weeks after 5/6 nephrectomy, and blood and tissue samples were collected.
as §2

Molecule | BUN (blood urea nitrogen) [1] | Cre (serum creatinine) [1] | Abnormal elevation of blood urea nitrogen and serum creatinine [1] | Blood pressure / hypertension [2] | Renal tubulointerstitial damage [3] | other results
CN(C)CCCn1cc(C2=C(c3c[nH]c4ccccc34)C(=O)NC2=O)c2ccccc21 [BIS, bisindolylmaleimide I] |  |  |  |  |  | MK-mediated increase in ACE expression (ACE; BIS 5 μM added 1 hour before 36-hour treatment with rh-MK plus heparin): blocked; PMA-induced increase in ACE expression (ACE; BIS added 1 hour before PMA): blocked
NNc1nncc2ccccc12 [Hydralazine, hydralazine hydrochloride] | 63.3 ± 7.6 mg/dL | 0.53 ± 0.12 mg/dL | not | ameliorated hypertension | not | 
CCCc1nc(C(C)(C)O)c(C(=O)O)n1Cc1ccc(-c2ccccc2-c2nnn[nH]2)cc1 [Olmesartan, olmesartan] | 36.0 ± 1.0^B mg/dl | 0.21 ± 0.01^A mg/dl |  |  |  | 
CCCCCCCCCCCCCC(=O)O[C@@H]1[C@@H](C)[C@@]2(O)[C@@H](C=C(CO)C[C@]3(O)C(=O)C(C)=C[C@@H]23)[C@@H]2C(C)(C)[C@]12OC(C)=O [PMA] |  |  |  |  |  | ACE expression in HMVEC-L (ACE; PMA 50 ng/ml): induced
CCOC(=O)[C@H](CCc1ccccc1)N[C@H]1CS[C@H](c2cccs2)CN(CC(=O)O)C1=O [Temocapril, temocapril] | 30.3 ± 2.9^A mg/dl | 0.21 ± 0.04^A mg/dl | ameliorated | reduced | reduced | 
CC1(C)CC(O)CC(C)(C)N1[O] [Tempol, 4-hydroxy-2,2,6,6-tetramethylpiperidine-N-oxyl] | 41.2 ± 3.9^B mg/dl | 0.25 ± 0.04^A mg/dl | significantly reduced | reduced | slight; also recorded: ameliorated | Glomerular sclerosis [3]: ameliorated; MK expression in the lung (MK; tempol 3 mmol/l in drinking water): reduced MK expression to normal levels; MK expression in the kidney (MK; tempol in drinking water): reduced; Plasma Ang II levels (Ang II): reduced
heparin |  |  |  |  |  | Conversion of Ang I to Ang II (HMVEC-L): did not show such a conversion
PTN: recombinant human pleiotrophin, shows 50% homology with MK (protein, UniProt P21246 33-168, looked up) Pleiotrophin: GKKEKPEKKVKKSDCGEWQWSVCVPTSGDCGLGTREGTRTGAECKQTMKTQRCKIPCNWKKQFGAECKYQFQAWGECDLNTALKTRTGSLKRALHNAECQKTVTISKPCGKLTKPKPQAESKKKKKEGKKQEKMLD |  |  |  |  |  | Hypertension (SBP) [4]: neither induced hypertension
